Measured values published in ChEMBL document CHEMBL6134876, “End-to-End Backbone Cyclization Enhances Passive Permeability of bRo5 Oligomeric Depsipeptides with Nonlinear Size Dependence” (ACS Med Chem Lett, 2025).
Starred links: 1 amine or outer side, 2 acyl side, 3 side chain; linkers in the order of their positions; H or OH if unused. Non-standard residues stand in square brackets, D forms with d. Residues, ends and D or L forms follow the SMILES beside them. X1 = CCCCC[C@H](O[*:1])C(=O)[*:2]; Ahp(2) = CCCCC[C@H](N)C(=O)O; dNMeA = CN[C@H](C)C(=O)O

Experiments:
Assay type in all cases: ADME
[1] = Permeability of compound assessed as compound recovery incubated for 14 to 18 hrs by PAMPA; conditions: time 14-18 hrs, read-out: Drug recovery
[2] = Permeability of compound assessed as compound diffusion incubated for 14 to 18 hrs by PAMPA; conditions: time 14-18 hrs
[3] = Apparent permeability of compound incubated for 14 to 18 hrs by PAMPA; conditions: time 14-18 hrs

Row | Compound | recovery [1] [%] | Activity [2] [%] | Papp [3] | logPapp [3]
1 | CCCCC[C@H](NC(=O)[C@@H](C)N(C)C(=O)[C@H](CCCCC)NC(=O)[C@@H](C)N(C)C(=O)[C@H](CCCCC)NC(=O)[C@@H](C)N(C)C(=O)[C@H](CCCCC)OC(=O)[C@@H](C)N(C)C(=O)OC(C)(C)C)C(=O)OCc1ccccc1 | 89 | 12 | – | –
2 | CCCCC[C@H](NC(=O)[C@@H](C)N(C)C(=O)[C@H](CCCCC)NC(=O)[C@@H](C)N(C)C(=O)[C@H](CCCCC)OC(=O)[C@@H](C)N(C)C(=O)[C@H](CCCCC)OC(=O)[C@@H](C)N(C)C(=O)OC(C)(C)C)C(=O)OCc1ccccc1 | 92 | – | – | –
3 | CCCCC[C@@H]1NC(=O)[C@@H](C)N(C)C(=O)[C@H](CCCCC)OC(=O)[C@@H](C)N(C)C(=O)[C@H](CCCCC)NC(=O)[C@@H](C)N(C)C(=O)[C@H](CCCCC)OC(=O)[C@@H](C)N(C)C1=O (cyclo([Ahp(2)][dNMeA][X1][dNMeA][Ahp(2)][dNMeA][X1][dNMeA])) | – | 25 | – | –
4 | CCCCC[C@H](NC(=O)[C@@H](C)N(C)C(=O)[C@H](CCCCC)OC(=O)[C@@H](C)N(C)C(=O)[C@H](CCCCC)OC(=O)[C@@H](C)N(C)C(=O)[C@H](CCCCC)OC(=O)[C@@H](C)N(C)C(=O)OC(C)(C)C)C(=O)OCc1ccccc1 | 93 | – | – | –
5 | CCCCC[C@H](OC(=O)[C@@H](C)N(C)C(=O)[C@H](CCCCC)OC(=O)[C@@H](C)N(C)C(=O)[C@H](CCCCC)OC(=O)[C@@H](C)N(C)C(=O)[C@H](CCCCC)OC(=O)[C@@H](C)N(C)C(=O)[C@H](CCCCC)OC(=O)[C@@H](C)N(C)C(=O)[C@H](CCCCC)OC(=O)[C@@H](C)N(C)C(=O)OC(C)(C)C)C(=O)OCc1ccccc1 | – | < 5 | Below_limit_of_detection | Below_limit_of_detection
